# Reference: ChEMBL document CHEMBL4417631, “Oral peptide inhibitors of interleukin-23 receptor and their use to treat inflammatory bowel diseases” (2017)
# Where a SMILES comes first, the peptide text is derived from it. [ ]: non-standard residue; d: D form. hLeu = CC(C)CC[C@H](N)C(=O)O
# Biological target: T1, Interleukin-23 receptor (Homo sapiens, UniProt Q5VWK5)
# T1 sequence (Q5VWK5 whole entry): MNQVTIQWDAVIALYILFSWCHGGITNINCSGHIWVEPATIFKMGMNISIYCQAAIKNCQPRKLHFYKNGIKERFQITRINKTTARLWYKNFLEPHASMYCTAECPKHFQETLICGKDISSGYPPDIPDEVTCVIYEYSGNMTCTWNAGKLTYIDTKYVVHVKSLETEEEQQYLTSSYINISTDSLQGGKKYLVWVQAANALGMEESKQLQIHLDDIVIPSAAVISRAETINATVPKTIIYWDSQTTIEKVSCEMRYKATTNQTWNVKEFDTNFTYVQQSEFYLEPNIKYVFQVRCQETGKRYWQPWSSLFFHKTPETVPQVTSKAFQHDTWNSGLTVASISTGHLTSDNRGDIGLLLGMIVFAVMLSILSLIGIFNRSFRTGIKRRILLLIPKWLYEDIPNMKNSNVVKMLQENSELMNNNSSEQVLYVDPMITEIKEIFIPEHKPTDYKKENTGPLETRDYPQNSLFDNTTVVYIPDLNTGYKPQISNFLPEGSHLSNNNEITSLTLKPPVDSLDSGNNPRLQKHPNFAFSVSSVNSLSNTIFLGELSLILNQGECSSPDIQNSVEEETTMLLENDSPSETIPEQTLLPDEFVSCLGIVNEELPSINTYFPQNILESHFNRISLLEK
# Assay: Inhibition of interleukin-23 binding to human interleukin-23 receptor incubated for 2 hrs by competitive binding ELISA
row,IC50,SMILES
1,< 500 nM,CC(=O)N[C@@H](CS)C(=O)N[C@@H](C)C(=O)N[C@H](C(=O)N[C@@H](Cc1c[nH]c2ccccc12)C(=O)N[C@@H](CCC(N)=O)C(=O)N[C@@H](CS)C(=O)N[C@@H](Cc1ccc(O)cc1)C(=O)N[C@@H](Cc1c[nH]c2ccccc12)C(=O)N[C@@H](Cc1cnc[nH]1)C(=O)N[C@@H](CCC(=O)O)C(=O)N[C@@H](Cc1ccc(O)cc1)C(=O)NCC(N)=O)[C@@H](C)O (Ac-CATWQCYWHEYG-NH2)
2,100 to 1000 nM,CC(=O)NC1C/C=C\CCC(C(=O)N[C@@H](Cc2ccc(O)cc2)C(=O)N[C@@H](Cc2c[nH]c3ccccc23)C(=O)N[C@@H](CCCNC(=N)N)C(=O)N[C@@H](CCCCN)C(=O)N[C@@H](Cc2ccccc2)C(=O)NCC(=O)NCCOCC(=O)N[C@H](CCCCN)C(N)=O)NC(=O)[C@H](CCC(N)=O)NC(=O)[C@H](Cc2c[nH]c3ccccc23)NC(=O)[C@H]([C@@H](C)O)NC(=O)[C@H](CCCNC(=N)N)NC1=O (some centres undefined)
3,> 10000 nM,CC(=O)N[C@@H](CS)C(=O)N[C@@H](CCC(N)=O)C(=O)N[C@H](C(=O)N[C@@H](CCCNC(=N)N)C(=O)N[C@@H](CCC(N)=O)C(=O)N[C@@H](CS)C(=O)N[C@@H](Cc1ccc(O)cc1)C(=O)N[C@@H](Cc1c[nH]c2ccccc12)C(=O)N[C@@H](CCC(C)C)C(=O)N[C@@H](CCC(=O)O)C(=O)N[C@@H](CC(N)=O)C(=O)NCC(N)=O)[C@@H](C)O (Ac-CQTRQCYW[hLeu]ENG-NH2)
4,> 10000 nM,CC(=O)N[C@@H](CS)C(=O)N[C@@H](C)C(=O)N[C@@H](CC(=O)O)C(=O)N[C@@H](Cc1c[nH]c2ccccc12)C(=O)N[C@H](C(=O)N[C@@H](CS)C(=O)N[C@@H](Cc1ccc(O)cc1)C(=O)N[C@@H](Cc1c[nH]c2ccccc12)C(=O)N[C@@H](Cc1cnc[nH]1)C(=O)N[C@H](C(=O)N[C@@H](Cc1ccccc1)C(=O)N[C@@H](CC(=O)O)C(=O)N[C@@H](CCCCNC(=O)COCC(=O)NCCCC[C@H](NC(=O)[C@H](CC(=O)O)NC(=O)[C@H](Cc1ccccc1)NC(=O)[C@@H](NC(=O)[C@H](Cc1cnc[nH]1)NC(=O)[C@H](Cc1c[nH]c2ccccc12)NC(=O)[C@H](Cc1ccc(O)cc1)NC(=O)[C@H](CS)NC(=O)[C@@H](NC(=O)[C@H](Cc1c[nH]c2ccccc12)NC(=O)[C@H](CC(=O)O)NC(=O)[C@H](C)NC(=O)[C@H](CS)NC(C)=O)C(C)C)[C@@H](C)O)C(=O)O)C(=O)O)[C@@H](C)O)C(C)C
5,100 to 1000 nM,CC(=O)N[C@@H](C)C(=O)N[C@H](C(=O)N[C@@H](CC(=O)O)C(=O)N[C@@H](Cc1c[nH]c2ccccc12)C(=O)N[C@H](C(=O)N[C@@H](CS)C(=O)N[C@@H](Cc1ccc(O)cc1)C(=O)N[C@@H](Cc1c[nH]c2ccccc12)C(=O)N[C@@H](CCCNC(=N)N)C(=O)N[C@@H](CCCCN)C(=O)N[C@@H](Cc1ccccc1)C(=O)NCC(=O)NCCOCC(=O)N[C@H](CCCCN)C(N)=O)C(C)C)C(C)(C)S
6,> 30000 nM,CC(=O)N[C@@H](CS)C(=O)N[C@@H](CCC(N)=O)C(=O)N[C@H](C(=O)N[C@@H](Cc1c[nH]c2ccccc12)C(=O)N[C@@H](CCC(N)=O)C(=O)N[C@@H](CS)C(=O)N[C@H](C(=O)N[C@@H](Cc1c[nH]c2ccccc12)C(=O)N[C@@H](CCC(C)C)C(=O)N[C@@H](CCC(=O)O)C(=O)N[C@@H](CC(N)=O)C(=O)NCC(N)=O)[C@@H](C)O)[C@@H](C)O
7,> 1000 nM,C[C@H](NC(=O)[C@@H](N)CS)C(=O)N[C@@H](CC(=O)O)C(=O)N[C@@H](Cc1c[nH]c2ccccc12)C(=O)N(C)CC(=O)N[C@@H](CS)C(=O)N[C@@H](Cc1ccc(O)cc1)C(=O)N[C@@H](Cc1cccc2ccccc12)C(=O)N[C@@H](Cc1cnc[nH]1)C(=O)N[C@H](C(=O)N[C@@H](Cc1ccccc1)C(=O)O)[C@@H](C)O
8,> 30000 nM,CC(=O)N[C@@H](CS)C(=O)N[C@@H](CCC(N)=O)C(=O)N[C@H](C(=O)N[C@@H](Cc1c[nH]c2ccccc12)C(=O)N[C@@H](CCC(N)=O)C(=O)N[C@@H](CS)C(=O)N[C@@H](Cc1ccc(O)cc1)C(=O)N[C@H](CC(=O)N[C@@H](CCCNC(=N)N)C(=O)N[C@H](C(=O)N[C@@H](CC(N)=O)C(=O)NCC(=O)NCCOCC(=O)N[C@H](CCCCN)C(N)=O)C(C)C)Cc1ccc(O)cc1)[C@@H](C)O
9,> 1000 nM,CC(=O)N[C@@H](CS)C(=O)N[C@@H](C)C(=O)N[C@@H](CC(=O)O)C(=O)N[C@@H](Cc1c[nH]c2ccccc12)C(=O)N[C@@H](CCC(=O)O)C(=O)N[C@@H](CS)C(=O)N[C@@H](Cc1ccc(O)cc1)C(=O)N[C@@H](Cc1c[nH]c2ccccc12)C(=O)N[C@@H](Cc1cnc[nH]1)C(=O)N[C@H](C(=O)N[C@@H](Cc1ccccc1)C(=O)NCC(N)=O)[C@@H](C)O
10,30000 nM,N=C(N)NCCC[C@H](NC(=O)[C@H](Cc1c[nH]c2ccccc12)NC(=O)[C@H](Cc1ccc(O)cc1)NC(=O)[C@@H]1CSCCC(=O)N[C@@H](CCC(N)=O)C(=O)N[C@@H](CC(=O)O)C(=O)N[C@@H](Cc2c[nH]c3ccccc23)C(=O)N[C@@H](CCC(N)=O)C(=O)N1)C(=O)N[C@@H](CCC(=O)O)C(=O)N[C@@H](CC(N)=O)C(=O)NCC(=O)NCCOCC(=O)N[C@H](CCCCN)C(N)=O
11,> 1000 nM,CC(=O)N[C@@H](CS)C(=O)N[C@@H](C)C(=O)N[C@@H](CC(=O)O)C(=O)N[C@@H](Cc1c[nH]c2ccccc12)C(=O)N[C@H](C(=O)N[C@@H](CS)C(=O)N[C@@H](Cc1ccc(O)cc1)C(=O)N[C@@H](Cc1ccc(-c2ccccc2)cc1)C(=O)N[C@@H](Cc1cnc[nH]1)C(=O)N[C@H](C(=O)N[C@@H](Cc1ccccc1)C(=O)NCC(=O)NCCOCC(=O)N[C@H](CCCCN)C(N)=O)[C@@H](C)O)C(C)C
12,1000 to 10000 nM,CC(=O)N[C@@H](C)C(=O)N[C@@H](CS)C(=O)N[C@@H](CC(=O)O)C(=O)N[C@@H](Cc1c[nH]c2ccccc12)C(=O)N[C@H](C(=O)N[C@H](C(=O)N[C@@H](Cc1ccc(O)cc1)C(=O)N[C@@H](Cc1c[nH]c2ccccc12)C(=O)N[C@@H](CCCNC(=N)N)C(=O)N[C@@H](CCCCN)C(=O)N[C@@H](Cc1ccccc1)C(=O)NCC(=O)NCCOCC(=O)N[C@H](CCCCN)C(N)=O)C(C)(C)S)C(C)C
13,500 to 1000 nM,CC(=O)N[C@@H](CS)C(=O)N[C@@H](C)C(=O)N[C@@H](CC(=O)O)C(=O)N[C@@H](Cc1c[nH]c2ccccc12)C(=O)N[C@H](C(=O)N[C@@H](CS)C(=O)N[C@@H](Cc1ccc(O)cc1)C(=O)N[C@@H](Cc1c[nH]c2ccccc12)C(=O)N[C@@H](Cc1cnc[nH]1)C(=O)N[C@@H](CC(N)=O)C(=O)N[C@@H](Cc1cnc[nH]1)C(=O)N[C@@H](CO)C(=O)N[C@@H](CCC(=O)O)C(=O)NCC(=O)N[C@@H](CO)C(=O)NCC(N)=O)C(C)C (Ac-CADWVCYWHNHSEGSG-NH2)
14,> 1000 nM,CC(=O)N[C@@H](CS)C(=O)N[C@@H](C)C(=O)N[C@@H](CC(=O)O)C(=O)N[C@@H](Cc1c[nH]c2ccccc12)C(=O)N[C@H](C(=O)N[C@@H](CS)C(=O)N[C@@H](Cc1ccc(O)cc1)C(=O)N[C@@H](Cc1cccc2ccccc12)C(=O)N[C@@H](Cc1cnc[nH]1)C(=O)NC(C)(C)C(=O)N[C@@H](Cc1ccccc1)C(=O)NCC(N)=O)C(C)C
15,> 1000 nM,NC(=O)CC[C@H](NC(=O)[C@@H](N)CS)C(=O)N[C@@H](CO)C(=O)N[C@@H](Cc1c[nH]c2ccccc12)C(=O)N[C@@H](CCC(=O)O)C(=O)N[C@@H](CS)C(=O)N[C@@H](Cc1ccc(O)cc1)C(=O)N[C@@H](Cc1c[nH]c2ccccc12)C(=O)N[C@@H](Cc1cnc[nH]1)C(=O)N[C@@H](Cc1ccc(O)cc1)C(=O)N[C@@H](Cc1ccc(O)cc1)C(=O)NCC(N)=O (H-CQSWECYWHYYG-NH2)
16,< 500 nM,CC(=O)N[C@@H](CS)C(=O)N[C@@H](C)C(=O)N[C@@H](CC(=O)O)C(=O)N[C@@H](Cc1c[nH]c2ccccc12)C(=O)N[C@H](C(=O)N[C@@H](CS)C(=O)N[C@@H](Cc1ccc(O)cc1)C(=O)N[C@@H](Cc1c[nH]c2ccccc12)C(=O)N[C@@H](Cc1cnc[nH]1)C(=O)N[C@H](C(=O)N[C@@H](Cc1ccccc1)C(=O)NCC(=O)N1CC[C@H]1C(=O)N[C@H](CCCCN)C(=O)O)[C@@H](C)O)C(C)C
17,< 500 nM,CC(=O)N[C@@H](CS)C(=O)N[C@H](C(=O)N[C@@H](CC(=O)O)C(=O)N[C@@H](Cc1c[nH]c2ccccc12)C(=O)N[C@H](C(=O)N[C@@H](CS)C(=O)N[C@@H](Cc1ccc(O)cc1)C(=O)N[C@@H](Cc1c[nH]c2ccccc12)C(=O)N[C@@H](Cc1cnc[nH]1)C(=O)N[C@H](C(=O)N[C@@H](Cc1ccccc1)C(=O)NCC(N)=O)[C@@H](C)O)C(C)C)[C@@H](C)O
18,> 1000 nM,CC(C)[C@H](NC(=O)[C@H](Cc1c[nH]c2ccccc12)NC(=O)[C@H](CC(=O)O)NC(=O)[C@H](C)NC(=O)[C@H](CS)NC(=O)[C@H](CO)NC(=O)CCN)C(=O)N[C@@H](CS)C(=O)N[C@@H](Cc1ccc(O)cc1)C(=O)N[C@@H](Cc1c[nH]c2ccccc12)C(=O)N[C@@H](Cc1cnc[nH]1)C(=O)N[C@H](C(=O)N[C@@H](Cc1ccccc1)C(=O)NCC(=O)O)[C@@H](C)O
19,> 30000 nM,N=C(N)NCCC[C@H](NC(=O)[C@H](Cc1c[nH]c2ccccc12)NC(=O)[C@H](Cc1ccc(O)cc1)NC(=O)[C@@H]1CCSCc2ccc(cc2)C(=O)N[C@@H](CCC(N)=O)C(=O)N[C@@H](CC(=O)O)C(=O)N[C@@H](Cc2c[nH]c3ccccc23)C(=O)N[C@@H](CCC(N)=O)C(=O)N1)C(=O)N[C@@H](CCC(=O)O)C(=O)N[C@@H](CC(N)=O)C(=O)NCC(=O)NCCOCC(=O)N[C@H](CCCCN)C(N)=O
